# Data reported in ChEMBL document CHEMBL1275488, “Extended-spectrum beta-lactamase production is associated with an increase in cell invasion and expression of fimbrial adhesins in Klebsiella pneumoniae” (2008).
# Tested on: Klebsiella pneumoniae
# Assay: Antibacterial activity against extended-spectrum beta-lactamase-producing Klebsiella pneumoniae
# Type: functional
row,Structure (SMILES),MIC [µg/mL]
1,CO/N=C(\C(=O)N[C@@H]1C(=O)N2C(C(=O)O)=C(COC(C)=O)CS[C@H]12)c1csc(N)n1 [CEFOTAXIME],< 2
2,CC(C)(O/N=C(\C(=O)N[C@@H]1C(=O)N2C(C(=O)[O-])=C(C[n+]3ccccc3)CS[C@H]12)c1csc(N)n1)C(=O)O [CEFTAZIDIME],< 2
3,CO/N=C(\C(=O)N[C@@H]1C(=O)N2C(C(=O)O)=C(CSc3nc(=O)c(O)nn3C)CS[C@H]12)c1csc(N)n1 [CEFTRIAXONE],< 2
